What all share (format): cell-based
The subject of one experiment is 16-member SynCom. Description: Targeted interventions in the SynCom (prebiotic metabolite or probiotic strain addition), metagenomics relative abundance. To be noted: 7 days; for change in relative abundance in the community upon metabolite addition: SynCom in 0.1×R2A + metabolite, three concentrations; for relative abundance of primary targets (high TE for import protein) after metabolite addition / relative abundance of secondary targets (guild competitors) after metabolite addition: SynCom in 0.1×R2A + substrate vs 0.1×R2A control. The protocol: Optical density readings at 600 nm (OD600), from isolates pre-cultures were taken with a Molecular Devices SpectraMax M3 Multi-Mode Microplate Reader (VWR, cat #89429-536). Precultures were diluted to a starting OD600 of 0.02 in 5 mL 0.1×R2A. The SynCom was assembled in large volumes to minimize pipetting error and maximize reproducibility. Briefly, 1 mL of each normalized culture (OD600=0.02) was diluted in a final volume of 250 mL 0.1×R2A and spread into 20 mL aliquots in Falcon tubes. Falcon tubes containing the SynCom inoculum were then incubated at 30° C. for 7 days, in aerobic conditions, in four biological replicates. After 7 days of culture, the SynCom samples were harvested by centrifugation and pellets were immediately treated for multi-omics analysis as detailed below (DNA-, RNA- and metaRibo-Seq).
For targeted modifications experiments carried out in the SynCom, the SynCom was assembled and cultured as described above, with modifications. Specific isolates were omitted from the SynCom assembly for the dropout experiments, as described in FIGS. 2d and 2e. Alternatively, concentrated stocks of either Burkholderia, Chitinophaga, Mucilaginibacter or Rhizobium were added as probiotics to the SynCom. Metabolites from concentrated, filter-sterilized stocks of the desired substrates were added to the medium for the prebiotics experiments. Modified SynCom were then incubated at 30° C. for 7 days, in aerobic conditions, in two biological replicates. After 7 days of culture, the modified SynCom samples were harvested by centrifugation and pellets were stored at −80° C. prior to metagenomics analysis.
DNA and RNA from SynCom samples were extracted from leftover lysates from metaRibo-Seq sample preparation, stored in Trizol at −80 C. DNA from soil samples was extracted using ZymoBIOMICS DNA miniprep kit (Zymo). DNA-Seq libraries were prepared using Nextera XT library preparation kit with 700 pg DNA input per sample and 6:30 min tagmentation at 55° C. and barcoded using Nextera XT indexes (Illumina). RNA was extracted using RNeasy mini kit (Qiagen), and rRNA was removed using QIAseq FastSelect-5S/16S/23S kit (Qiagen). RNA-Seq libraries were prepared using KAPA RNA HyperPrep kit (Roche) and barcoded using TruSeq indexes (Illumina). Amplification was followed in real time using SYBR-Green and stopped when reaching a plateau.
Adapter sequences were removed from multi-omics sequencing data using TrimGalore (Cutadapt version 1.18), and quality controlled using FastQC version 0.11.9 (Andrews et al. 2010). Trimmed reads were aligned to a custom SynCom database using bowtie2 version 2.3.2. Gene count tables were obtained using Woltka version 0.1.1 (Zhu et al. 2022). Multi-omics gene counts were normalized to reads per kilobase per million (RPKM).

In a further experiment the test system is Burkholderia. The experiment can be described thus: Pre-/probiotic intervention in natural soil, shotgun metagenomics relative abundance. To be noted: for Burkholderia's relative abundance: soil+SynCom probiotic+prebiotic versus soil+SynCom probiotic (FIG. 6).
The subject of another experiment is Paenibacillus. The description is as above. To be noted: natural soil in 0.1×R2A, 7 days. The protocol:
(§1) A soil associated with switchgrass lowland reference genome clone (Missaoui, Boerma, and Bouton 2005) that was sampled from a field located in Texas, USA (28.3325, −98.1175) was used. Fifty gram (50 g) of soil was added to 250 mL of 0.1×R2A culture medium or 0.1×R2A+SynCom inoculum prepared as described above, and this volume was spread in 14 mL culture tubes (5 mL in each tube). 50-500 μL of concentrated, filter-sterilized stocks of the desired substrates and/or 20 μL of the SynCom isolate pure cultures diluted at an OD600 of 0.02 (i.e. approximately 8.10^5 CFU/mL) were then added. Soil samples were then grown at 30° C. for 7 days, in aerobic conditions, in two biological replicates (three replicates for reference soil sample). After 7 days of culture, the soil samples were harvested by centrifugation and pellets were stored at −80° C. prior to metagenomics analysis.
(§2) Soil samples from a switchgrass crop similar to the site from which the SynCom strains were originally isolated, were incubated in 33 different conditions: 0.1×R2A alone (soil control), with and without metabolite additions (prebiotic), and with and without individual SynCom members (probiotic, 8.10^5 CFU/mL), or the whole 16-member SynCom (probiotic consortium, 8.10^5 CFU/mL of each member) (see methods and FIG. 6). Changes in microbial community composition were analyzed by shotgun metagenomics.

In another experiment the test system is Rhizobium and Variovorax. The description is as above. To be noted: for relative abundance of Burkholderia's competitors Rhizobium and Variovorax: soil+SynCom probiotic+prebiotic versus soil+SynCom probiotic (FIG. 6). The protocol:
as §1, §2

For a further experiment, the system named is Chitinophaga. The experiment is described as above. To be noted: natural soil in 0.1×R2A, 7 days. The protocol:
as §1, §2

For a further experiment, the system named is Mucilaginibacter. Described as above. To be noted: natural soil in 0.1×R2A, 7 days. The protocol:
as §1, §2

Setting [1] is: natural soil in 0.1×R2A, 7 days.

The structures appear in SMILES notation. Entries after “also recorded” stand apart in the source; their conditions may differ.

`C/C1=C2/[N-][C@H]([C@H](CC(N)=O)[C@@]2(C)CCC(=O)NC[C@H](C)OP(=O)([O-])O[C@H]2[C@@H](O)[C@@H](n3cnc4cc(C)c(C)cc43)O[C@@H]2CO)[C@]2(C)N=C(/C(C)=C3N=C(/C=C4N=C1[C@@H](CCC(N)=O)C\4(C)C)[C@@H](CCC(N)=O)[C@]\3(C)CC(N)=O)[C@@H](CCC(N)=O)[C@]2(C)CC(N)=O.[Co+2]` (stereo in doubt) [cobalamin]: the “change in relative abundance in the community upon metabolite addition” value (shortened to “change in relative abundance”) with 16-member SynCom is reported as “did not induce any significant change”.
With `N[C@@H](CSSC[C@H](N)C(=O)O)C(=O)O` [cystine], in the experiment with 16-member SynCom, the “change in relative abundance” value is given as “did not induce any significant change”.
For the molecule `O=C[C@H](O)[C@H](O)[C@H](O)CO` [ribose], in the experiment with 16-member SynCom, the “relative abundance of primary targets (high TE for import protein) after metabolite addition” value (from here on “relative abundance of primary targets”) was “specific increase of primary targets Paenibacillus and Burkholderia; also recorded: Paenibacillus (increased), Arthobacter and Brevibacillus (not increased)”; the “relative abundance of secondary targets (guild competitors) after metabolite addition” value (“relative abundance of secondary targets” below) was “specific decrease of Burkholderia's competitors Variovorax, Rhizobium, and Bradyrhizobium”. The “Burkholderia's relative abundance” value with Burkholderia is “increase in Burkholderia's relative abundance”. The “Paenibacillus relative abundance, fold change” value in the experiment on Paenibacillus was 3.5 fold change. Besides, in the experiment with Rhizobium and Variovorax, the “relative abundance of Burkholderia's competitors Rhizobium and Variovorax” value is “decrease of its competitors Rhizobium and Variovorax”.
Regarding `OC[C@H]1O[C@H](O[C@H]2O[C@H](CO)[C@@H](O)[C@H](O)[C@H]2O)[C@H](O)[C@@H](O)[C@@H]1O` [trehalose], the “Paenibacillus relative abundance, fold change” value in the experiment on Paenibacillus was 5.5 fold change.
For the molecule `CSCC[C@H](N)C(=O)O` [methionine], the “change in relative abundance” value with 16-member SynCom is “did not induce any significant change”.
On to `N[C@@H](CCC(=O)N[C@@H](CS)C(=O)NCC(=O)O)C(=O)O` [glutathione], for which, in the experiment on 16-member SynCom, the “relative abundance of primary targets” value was “specifically increased primary targets Burkholderia and Chitinophaga”; the “relative abundance of secondary targets” value was “decreasing their competitors Mucilaginibacter, and Bradyrhizobium”. For the same molecule, the “Chitinophaga relative abundance (in words)” value in the experiment with Chitinophaga was “did not increase Chitinophaga”. The “Mucilaginibacter relative abundance (in words)” value in the experiment with Mucilaginibacter was “did not decrease Mucilaginibacter abundance”.
Turning to `O=C(CO)[C@@H](O)[C@H](O)[C@H](O)CO` [fructose], the “Burkholderia relative abundance, fold change” value in the experiment on Burkholderia (setting [1]) is recorded as 3.9 fold change. For the same molecule, the “Burkholderia's relative abundance” value in the experiment with Burkholderia is “increase in Burkholderia's relative abundance”. In the experiment with Rhizobium and Variovorax (setting [1]), the “relative abundance of Burkholderia's competitors” value was “decrease of its closest competitors Rhizobium and Variovorax”. In the experiment with Rhizobium and Variovorax, the “relative abundance of Burkholderia's competitors Rhizobium and Variovorax” value was “decrease of its competitors Rhizobium and Variovorax”.
For the molecule `NCCCCN` [putrescine], in the experiment on 16-member SynCom, the “relative abundance of primary targets” value was “specifically increased Paenibacillus and Rhodococcus”; the “relative abundance of secondary targets” value was “reducing competitors Rhizobium, Bradyrhizobium, and Mucilaginibacter”.

These data come from patent US20250157571A1, “Methods, Apparatus, and Systems for Determining the Functional Microbial Niche and Identifying Interventions in Complex Hetergeneous Communities” (The Regents of the University of California, priority 2022, published 2025).
